Read-outs that look alike come from different tables or passages of the source.
What was measured:
[1] = target: T1, δ opioid receptor (Homo sapiens, UniProt P41143); test: δ opioid competitive radioligand binding; details: for Opioid receptor displacement (%) δ: Tested at 10 µM
[2] = target: κ opioid receptor (Homo sapiens, UniProt P41145); test: κ opioid competitive radioligand binding; details: for Opioid receptor displacement (%) κ: Tested at 10 µM
[3] = target: T2, μ opioid receptor (Homo sapiens, UniProt P35372); test: μ opioid competitive radioligand binding; details: for Opioid receptor displacement (%) μ: Tested at 10 µM
[4] = tested on: Adult male Swiss Webster mice; test: Mouse tetrad assay; details: for Catalepsy Latency / Hotplate Latency (% MPE) / Tail-Flick Latency (% MPE) / Rectal temperature (°C): 30 min post-injection; for Rectal temperature (°C): change in core body temperature
[5] = target: T1, δ opioid receptor; test: In vitro GTPγS functional assay, δ-opioid; type: biochemical
[6] = target: T2, μ opioid receptor; test: In vitro GTPγS functional assay, μ-opioid; type: biochemical
[7] = ip, dose not stated or 'lower doses' (10–100 mg/kg tested)

Oc1ccc(CC2NCCc3cc(O)c(O)cc32)cc1 (racemic) [Compound 11, (±)-higenamine]
Opioid receptor displacement (%) δ [1]: did not show any significant displacements
Opioid receptor displacement (%) κ [2]: did not show any significant displacements
Opioid receptor displacement (%) μ [3]: did not show any significant displacements

COc1cc2c3c(c1OC)-c1ccccc1C[C@H]3N(C)CC2 [Compound 1, nuciferine]
Catalepsy Latency ([4]; 10 mg/kg ip): 3.875 ± 2.32 s
Hotplate Latency (% MPE) ([4]; 10 mg/kg ip): 6.99 ± 2.61 % MPE
Tail-Flick Latency (% MPE) ([4]; 10 mg/kg ip): 11.69 ± 6.074 % MPE
Rectal temperature (°C) ([4]; 10 mg/kg ip): −0.49 ± 0.31 °C
Catalepsy Latency ([4]; 30 mg/kg ip): 1.750 ± 0.62 s
Hotplate Latency (% MPE) ([4]; 30 mg/kg ip): 3.69 ± 3.01 % MPE
Tail-Flick Latency (% MPE) ([4]; 30 mg/kg ip): 18.43 ± 10.50 % MPE
Rectal temperature (°C) ([4]; 30 mg/kg ip): −0.91 ± 0.31 °C
Catalepsy Latency ([4]; 75 mg/kg ip): 3.500 ± 1.07 s
Hotplate Latency (% MPE) ([4]; 75 mg/kg ip): 0.68 ± 2.73 % MPE
Tail-Flick Latency (% MPE) ([4]; 75 mg/kg ip): 19.45 ± 6.16 % MPE
Rectal temperature (°C) ([4]; 75 mg/kg ip): −1.68 ± 0.38 °C
Catalepsy Latency ([4]; 100 mg/kg ip): 1.500 ± 0.27 s
Hotplate Latency (% MPE) ([4]; 100 mg/kg ip): 21.78 ± 7.16 % MPE
Tail-Flick Latency (% MPE) ([4]; 100 mg/kg ip): 14.14 ± 15.52 % MPE
Rectal temperature (°C) ([4]; 100 mg/kg ip): −3.8 ± 0.57 °C
Behavioral effects in tetrad assay (in words) ([4]; 100 mg/kg/ip): only decreased locomotion and hypothermia at the same dose, but failed to display catalepsy and antinociceptive activity
Behavioral effects in tetrad assay (in words) [4, 7]: failed to show any cataleptic effect or toxicity in the form of tremors and convulsions

COc1cc2c(cc1OC)C(Cc1ccc(O)cc1)N(C)CC2 (stereo not shown) [Compound 4, armepavine]
Ki ([1]; read-out: δ Ki (µM) ± SEM): 23.8 ± 3.7 µM
Ki ([2]; read-out: κ Ki (µM) ± SEM): 13 ± 1.4 µM
Ki ([3]; read-out: μ Ki (µM) ± SEM): 2.7 ± 0.8 µM

COc1cc2c(cc1O)[C@@H](Cc1ccc(O)cc1)N(C)CC2 [Compound 6, N-methylcoclaurine]
Ki ([1]; read-out: δ Ki (µM) ± SEM): 20.1 ± 3.1 µM
Ki ([2]; read-out: κ Ki (µM) ± SEM): 0.9 ± 0.1 µM
Ki ([3]; read-out: μ Ki (µM) ± SEM): 4 ± 0.5 µM

COc1cc2c(cc1O)C(Cc1ccc(O)cc1)NCC2 (stereo not shown) [Compound 7, coclaurine]
Ki [1]: 21.1 ± 2 µM
Ki [2]: 2.2 ± 0.2 µM
Ki [3]: 5 ± 0.7 µM
Catalepsy Latency ([4]; 10 mg/kg ip): 1.25 ± 0.25 s
Hotplate Latency (% MPE) ([4]; 10 mg/kg ip): 10.15 ± 4.45 % MPE
Tail-Flick Latency (% MPE) ([4]; 10 mg/kg ip): 16.57 ± 7.23 % MPE
Rectal temperature (°C) ([4]; 10 mg/kg ip): 0.17 ± 0.08 °C
Catalepsy Latency ([4]; 30 mg/kg ip): 2.37 ± 0.59 s
Hotplate Latency (% MPE) ([4]; 30 mg/kg ip): 5.46 ± 5.05 % MPE
Tail-Flick Latency (% MPE) ([4]; 30 mg/kg ip): 1.43 ± 6.95 % MPE
Rectal temperature (°C) ([4]; 30 mg/kg ip): 0.1 ± 0.15 °C
Catalepsy Latency ([4]; 75 mg/kg ip): 1.75 ± 0.41 s
Hotplate Latency (% MPE) ([4]; 75 mg/kg ip): 15.49 ± 3.57 % MPE
Tail-Flick Latency (% MPE) ([4]; 75 mg/kg ip): 13.95 ± 5.01 % MPE
Rectal temperature (°C) ([4]; 75 mg/kg ip): −0.39 ± 0.05 °C
Catalepsy Latency ([4]; 100 mg/kg ip): 1.25 ± 0.25 s
Hotplate Latency (% MPE) ([4]; 100 mg/kg ip): 6.08 ± 1.9 % MPE
Tail-Flick Latency (% MPE) ([4]; 100 mg/kg ip): 10.07 ± 3.31 % MPE
Rectal temperature (°C) ([4]; 100 mg/kg ip): −0.58 ± 0.23 °C
Behavioral effects in tetrad assay (in words) [4, 7]: did not influence any significant behavioral effects with the exception of weak locomotor activity

COc1ccc(C[C@@H]2c3cc(Oc4cc(C[C@@H]5c6cc(OC)c(OC)cc6CCN5C)ccc4O)c(OC)cc3CCN2C)cc1 [Compound 10, neferine]
Ki [1]: 0.7 ± 0.1 µM
Ki [2]: 3.3 ± 0.4 µM
Ki [3]: 1.8 ± 0.2 µM
EC50 [5]: 7.9 ± 2.1 µM
EC50 [6]: > 21 µM
Functional character at μ opioid receptor by GTPγS assay ([6]; in words): weak μ partial agonist

COc1ccc(C[C@@H]2c3cc(OC)c(OC)cc3CCN2C)cc1 [Compound 12, 4´-O-methylarmepavine]
Opioid receptor displacement (%) δ [1]: did not show any significant displacements
Opioid receptor displacement (%) κ [2]: did not show any significant displacements
Opioid receptor displacement (%) μ [3]: did not show any significant displacements

COc1ccc(CC2c3cc(OC)c(OC)cc3CCN2C)cc1 (stereo not shown) [Compound 13, 4´,7-di-O-methylarmepavine]
Opioid receptor displacement (%) δ [1]: did not show any significant displacements
Opioid receptor displacement (%) κ [2]: did not show any significant displacements
Opioid receptor displacement (%) μ [3]: did not show any significant displacements

CCCCC/C=C\C/C=C\CCCCCCCC(=O)O [Linoleic acid (LA), linoleic acid]
Ki [1]: 14.5 ± 2.4 µM

CCCCCCCCCCCCCCCC(=O)O [Palmitic acid (PA), palmitic acid]
Ki [1]: > 21.1 µM

O-methylcoclaurine [Compound 5]
Ki ([1]; read-out: δ Ki (µM) ± SEM): 22.6 ± 3.9 µM
Ki ([2]; read-out: κ Ki (µM) ± SEM): 3.5 ± 0.3 µM
Ki ([3]; read-out: μ Ki (µM) ± SEM): 2 ± 0.3 µM
